{
  "source": "ChEMBL document CHEMBL5608204",
  "about": "“Disulfide bond replacement with non-reducible side chain to tail macrolactamization for the development of potent and selective CXCR4 peptide antagonists endowed with flanking binding sites” (Eur J Med Chem, 2024)",
  "key": {"[1]": {"biological_target": "T1, C-X-C chemokine receptor type 4 (Homo sapiens, UniProt P61073)", "T1 sequence (P61073 whole entry)": "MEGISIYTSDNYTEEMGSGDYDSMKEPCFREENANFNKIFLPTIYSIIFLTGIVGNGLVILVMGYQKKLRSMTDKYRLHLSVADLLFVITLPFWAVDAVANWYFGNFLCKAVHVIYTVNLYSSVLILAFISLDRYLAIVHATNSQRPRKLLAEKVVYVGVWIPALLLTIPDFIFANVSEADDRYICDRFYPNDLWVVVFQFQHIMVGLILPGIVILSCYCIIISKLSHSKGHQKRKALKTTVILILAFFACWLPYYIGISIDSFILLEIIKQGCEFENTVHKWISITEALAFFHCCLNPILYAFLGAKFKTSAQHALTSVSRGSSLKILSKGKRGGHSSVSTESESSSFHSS", "assay": "Antagonist activity at CXCR4 in human CCRF-CEM cells assessed as inhibition of anti-CXCR4 binding preincubated with compound for 45 mins followed by anti-CXCR4 PE antibody addition and measured after 30 mins by fluorescence based competitive binding assay", "format": "functional, cell-based"}, "[2]": {"assay": "Stability of the compound assessed as parent compound remaining in PBS buffer at pH 7.4 at 10 uM measured after 1 hr in presence of glutathione by RP-HPLC analysis", "format": "physicochemical", "details": "PBS buffer with glutathione, read-out: Stability"}, "[3]": {"assay": "Stability of the compound assessed as parent compound remaining in PBS buffer at pH 7.4 at 10 uM measured after 8 hr in presence of glutathione by RP-HPLC analysis", "format": "physicochemical", "details": "PBS buffer with glutathione, read-out: Stability"}, "[4]": {"biological_target": "T1, C-X-C chemokine receptor type 4", "assay": "Displacement of 125I-CXCL12 from CXCR4 in human CCRF-CEM cells measured after 1 hr by competitive binding assay", "format": "cell-based"}, "[5]": {"assay": "Stability of the compound assessed as parent compound remaining in PBS buffer at pH 7.4 at 10 uM measured upto 8 hr in presence of glutathione by RP-HPLC analysis", "format": "physicochemical", "details": "pH 7.4, 8 h"}, "[6]": {"biological_target": "T1, C-X-C chemokine receptor type 4", "assay": "Antagonist activity at CXCR4 (unknown origin) transfected with CHO cells cotransfected with CXCR4-GFP assessed as inhibition of CXCL12 induced CXCR4 internalization at upto 1 uM preincubated for 45 mins followed by CXCL12 stimulation and measured after 30 to 90 mins by DAPI staining based microscopy analysis", "format": "functional, cell-based", "details": "time 75-135 min"}, "[7]": {"biological_target": "T1, C-X-C chemokine receptor type 4", "assay": "Agonist activity at CXCR4 in human CEM cells assessed as induction of CXCR4 internalization at 0.1 to 1 uM incubated for 45 mins by flow cytometry analysis", "format": "functional, cell-based", "details": "dose 0.1-1 µM"}, "[8]": {"biological_target": "T2, Atypical chemokine receptor 3 (Homo sapiens, UniProt P25106)", "T2 sequence (P25106 whole entry)": "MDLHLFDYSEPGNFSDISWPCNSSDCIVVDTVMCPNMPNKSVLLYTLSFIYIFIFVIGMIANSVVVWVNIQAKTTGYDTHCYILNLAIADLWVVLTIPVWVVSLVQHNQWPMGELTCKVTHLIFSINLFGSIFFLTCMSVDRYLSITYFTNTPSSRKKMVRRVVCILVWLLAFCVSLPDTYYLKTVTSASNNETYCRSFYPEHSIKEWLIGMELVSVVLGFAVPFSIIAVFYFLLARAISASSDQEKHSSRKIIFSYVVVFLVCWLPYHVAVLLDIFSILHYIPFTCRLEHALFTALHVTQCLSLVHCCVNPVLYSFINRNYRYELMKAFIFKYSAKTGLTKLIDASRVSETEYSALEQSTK", "assay": "Inhibition of CXCR7 (unknown origin) overexpressing human MCF7 cells at upto 10 uM by flow cytometry analysis relative to control", "format": "cell-based"}, "[9]": {"biological_target": "T1, C-X-C chemokine receptor type 4", "assay": "Agonist activity at CXCR4 (unknown origin) transfected with CHO cells cotransfected with CXCR4-GFP assessed as induction of CXCR4 internalization at 0.1 to 1 uM incubated for 45 mins by DAPI staining based microscopy analysis", "format": "functional, cell-based", "details": "dose 0.1-1 µM"}, "[10]": {"biological_target": "T2, Atypical chemokine receptor 3", "assay": "Binding affinity to CXCR7 (unknown origin) overexpressing human MCF7 cells by flow cytometry analysis", "format": "cell-based"}, "CCRF-CEM [11]": {"system": "CCRF-CEM", "assay": "Inhibition of CXCL12-induced cell migration in human CCRF-CEM cells measured after 6 hrs by DAPI staining based analysis", "format": "functional", "details": "dose 0.01-10 µM"}, "CCRF-CEM [12]": {"system": "CCRF-CEM", "assay": "Inhibition of CXCL12-induced cell migration in human CCRF-CEM cells at 0.01 to 10 uM measured after 6 hrs by DAPI staining based analysis", "format": "functional", "details": "dose 0.01-10 µM"}, "[13]": {"biological_target": "T2, Atypical chemokine receptor 3", "assay": "Binding affinity to CXCR7 (unknown origin) overexpressing human MCF7 cells at upto 10 uM by flow cytometry analysis", "format": "cell-based"}, "[14]": {"biological_target": "T1, C-X-C chemokine receptor type 4", "assay": "Antagonist activity at CXCR4 in human CEM cells assessed as inhibition of CXCL12-induced CXCR4 internalization at 0.1 to 1 uM preincubated for 45 mins followed by CXCL12 stimulation and measured after 30 mins by flow cytometry analysis", "format": "functional, cell-based", "details": "filed as antagonist, dose 0.1-1 µM, time 75.0 min"}},
  "note": "pIC50: −log10 of the molar value. Activity calls are given as the source filed them. The calls are words filed in the database; no cut-off is given here.",
  "data": [
    {"smiles": "CC(=O)N[C@@H](CCCNC(=N)N)C(=O)N[C@@H](C)C(=O)N[C@@H]1CCCNC(=O)[C@H](CC(=O)O)NC(=O)[C@H](Cc2c[nH]cn2)NC(=O)[C@H](Cc2ccc3ccccc3c2)NC(=O)[C@H](CCCNC(=N)N)NC1=O", "values": [
      {"measurement": "pIC50", "setting": "[1]; ccrf-cem", "value": 6.02}
    ]},
    {"smiles": "CC(=O)N[C@@H](CCCNC(=N)N)C(=O)N[C@@H](C)C(=O)N[C@@H]1CCCCNC(=O)[C@H](CCC(=O)O)NC(=O)[C@H](Cc2c[nH]cn2)NC(=O)[C@H](Cc2ccc3ccccc3c2)NC(=O)[C@H](CCCNC(=N)N)NC1=O", "values": [
      {"measurement": "pIC50", "setting": "[1]; ccrf-cem", "value": "< 5.00"}
    ]},
    {"smiles": "CC(=O)N[C@@H](CCCNC(=N)N)C(=O)N[C@@H](C)C(=O)N[C@@H]1CSSC(C)(C)[C@@H](C(=O)O)NC(=O)[C@H](Cc2cnc[nH]2)NC(=O)[C@H](Cc2ccc3ccccc3c2)NC(=O)[C@H](CCCNC(=N)N)NC1=O", "values": [
      {"measurement": "remaining at 1 h, 10 µM", "setting": "[2]", "value": "~88", "unit": "%"},
      {"measurement": "remaining at 8 h, 10 µM", "setting": "[3]", "value": "~52", "unit": "%"},
      {"measurement": "pIC50", "setting": "[4]", "value": 8.33},
      {"measurement": "pIC50", "setting": "[1]", "value": 9.00}
    ]},
    {"smiles": "CC(=O)N[C@@H](CCCNC(=N)N)C(=O)N[C@@H](C)C(=O)N[C@@H]1Cn2cc(nn2)C[C@@H](C(=O)O)NC(=O)[C@H](Cc2c[nH]cn2)NC(=O)[C@H](Cc2ccc3ccccc3c2)NC(=O)[C@H](CCCNC(=N)N)NC1=O", "values": [
      {"measurement": "pIC50", "setting": "[4]; ccrf-cem", "value": 7.44}
    ]},
    {"smiles": "CC(=O)N[C@@H](CCCNC(=N)N)C(=O)N[C@@H](C)C(=O)N[C@@H]1CCCNC(=O)[C@H](CCC(=O)O)NC(=O)[C@H](Cc2c[nH]cn2)NC(=O)[C@H](Cc2ccc3ccccc3c2)NC(=O)[C@H](CCCNC(=N)N)NC1=O", "values": [
      {"measurement": "pIC50", "setting": "[1]; ccrf-cem", "value": "< 5.00"}
    ]},
    {"smiles": "CC(=O)N[C@@H](CCCNC(=N)N)C(=O)N[C@@H](C)C(=O)N[C@H]1CNC(=O)[C@@H](CCC(=O)O)NC(=O)[C@H](Cc2c[nH]cn2)NC(=O)[C@H](Cc2ccc3ccccc3c2)NC(=O)[C@H](CCCNC(=N)N)NC1=O", "values": [
      {"measurement": "pIC50", "setting": "[4]", "value": 7.32},
      {"measurement": "Stability", "setting": "[5]", "value": "Stable"},
      {"measurement": "Activity", "setting": "[6]", "value": "inactive"},
      {"measurement": "pIC50", "setting": "[1]", "value": 7.30},
      {"measurement": "Activity", "setting": "[7]", "value": "inactive"},
      {"measurement": "inhibition", "setting": "[8]", "value": 37, "unit": "%"},
      {"measurement": "Activity", "setting": "[9]", "value": "inactive"},
      {"measurement": "pIC50", "setting": "[10]", "value": "< 5.00"},
      {"measurement": "inhibition", "setting": "CCRF-CEM [11]", "value": "Dose-Dependent Effect"}
    ]},
    {"smiles": "CC(=O)N[C@@H](CCCNC(=N)N)C(=O)N[C@@H](C)C(=O)N[C@@H]1CCNC(=O)[C@H](CC(=O)O)NC(=O)[C@H](Cc2c[nH]cn2)NC(=O)[C@H](Cc2ccc3ccccc3c2)NC(=O)[C@H](CCCNC(=N)N)NC1=O", "values": [
      {"measurement": "pIC50", "setting": "[1]; ccrf-cem", "value": 6.70}
    ]},
    {"smiles": "CC(=O)N[C@@H](CCCNC(=N)N)C(=O)N[C@@H](C)C(=O)N[C@@H]1CSSC(C)(C)[C@H](C(=O)O)NC(=O)[C@H](Cc2c[nH]cn2)NC(=O)[C@H](Cc2ccc3ccccc3c2)NC(=O)[C@H](CCCNC(=N)N)NC1=O", "values": [
      {"measurement": "inhibition", "setting": "CCRF-CEM [12]", "value": "Active"},
      {"measurement": "Activity", "setting": "[13]", "value": "inactive"},
      {"measurement": "Activity", "setting": "[14]", "value": "Active"},
      {"measurement": "Activity", "setting": "[7]", "value": "inactive"},
      {"measurement": "Activity", "setting": "[9]", "value": "inactive"}
    ]},
    {"smiles": "CC(=O)N[C@@H](CCCNC(=N)N)C(=O)N[C@@H](C)C(=O)N[C@@H]1CCn2nncc2C[C@@H](C(=O)O)NC(=O)[C@H](Cc2c[nH]cn2)NC(=O)[C@H](Cc2ccc3ccccc3c2)NC(=O)[C@H](CCCNC(=N)N)NC1=O", "values": [
      {"measurement": "pIC50", "setting": "[4]; ccrf-cem", "value": 7.52}
    ]},
    {"smiles": "CC(=O)N[C@@H](CCCNC(=N)N)C(=O)N[C@@H](C)C(=O)N[C@@H]1CNC(=O)[C@H](CCC(=O)O)NC(=O)[C@H](Cc2c[nH]cn2)NC(=O)[C@H](Cc2ccc3ccccc3c2)NC(=O)[C@H](CCCNC(=N)N)NC1=O", "values": [
      {"measurement": "pIC50", "setting": "[1]", "value": "< 5.00"}
    ]},
    {"smiles": "CC(=O)N[C@@H](CCCNC(=N)N)C(=O)N[C@@H](C)C(=O)N[C@@H]1CNC(=O)[C@@H](CC(=O)O)NC(=O)[C@H](Cc2c[nH]cn2)NC(=O)[C@H](Cc2ccc3ccccc3c2)NC(=O)[C@H](CCCNC(=N)N)NC1=O", "values": [
      {"measurement": "pIC50", "setting": "[1]", "value": 7.00}
    ]},
    {"smiles": "CC(=O)N[C@@H](CCCNC(=N)N)C(=O)N[C@@H](C)C(=O)N[C@@H]1CNC(=O)[C@H](Cc2ccccc2)NC(=O)[C@H](Cc2c[nH]cn2)NC(=O)[C@H](Cc2ccc3ccccc3c2)NC(=O)[C@H](CCCNC(=N)N)NC1=O", "values": [
      {"measurement": "pIC50", "setting": "[1]; ccrf-cem", "value": 6.46}
    ]},
    {"smiles": "CC(=O)N[C@@H](CCCNC(=N)N)C(=O)N[C@@H](C)C(=O)N[C@H]1CNC(=O)[C@@H](CC(=O)O)NC(=O)[C@H](Cc2c[nH]cn2)NC(=O)[C@H](Cc2ccc3ccccc3c2)NC(=O)[C@H](CCCNC(=N)N)NC1=O", "values": [
      {"measurement": "pIC50", "setting": "[1]", "value": 6.73}
    ]},
    {"smiles": "CC(=O)N[C@@H](CCCNC(=N)N)C(=O)N[C@@H](C)C(=O)N[C@@H]1CNC(=O)[C@H](CCC(C)C)NC(=O)[C@H](Cc2c[nH]cn2)NC(=O)[C@H](Cc2ccc3ccccc3c2)NC(=O)[C@H](CCCNC(=N)N)NC1=O", "values": [
      {"measurement": "pIC50", "setting": "[1]; ccrf-cem", "value": 6.95}
    ]},
    {"smiles": "CC(=O)N[C@@H](CCCNC(=N)N)C(=O)N[C@@H](C)C(=O)N[C@@H]1CCNC(=O)[C@H](CCC(=O)O)NC(=O)[C@H](Cc2c[nH]cn2)NC(=O)[C@H](Cc2ccc3ccccc3c2)NC(=O)[C@H](CCCNC(=N)N)NC1=O", "values": [
      {"measurement": "pIC50", "setting": "[1]; ccrf-cem", "value": 6.11}
    ]},
    {"smiles": "CC(=O)N[C@@H](CCCNC(=N)N)C(=O)N[C@@H](C)C(=O)N[C@@H]1CNC(=O)[C@H](CCC(N)=O)NC(=O)[C@H](Cc2c[nH]cn2)NC(=O)[C@H](Cc2ccc3ccccc3c2)NC(=O)[C@H](CCCNC(=N)N)NC1=O", "values": [
      {"measurement": "pIC50", "setting": "[1]; ccrf-cem", "value": 6.61}
    ]},
    {"smiles": "CC(=O)N[C@@H](CCCNC(=N)N)C(=O)N[C@@H](C)C(=O)N[C@@H]1CCCCNC(=O)[C@H](CC(=O)O)NC(=O)[C@H](Cc2c[nH]cn2)NC(=O)[C@H](Cc2ccc3ccccc3c2)NC(=O)[C@H](CCCNC(=N)N)NC1=O", "values": [
      {"measurement": "pIC50", "setting": "[1]; ccrf-cem", "value": 5.77}
    ]}
  ]
}
